Data as given in patent US4374146A, “Topical inflammatory pharmaceutical formulations” (Burroughs Wellcome Co., priority 1980, dated 1983).
Read-outs that look alike come from different tables or passages of the source.

Legend:
[1] = test system: hot plate analgesia; assay: Hot plate assay for strong analgesic activity; conditions: in vivo
[2] = Acute toxicity assay, rat; conditions: in vivo
Description: Four non-fasted male rats of 160-250 gram body weight were used for each dose level. The compound was injected by the indicated route and the symptom onset time, the intensity of the effect and the duration during a 4 hour observation period are recorded. The LD50 estimated is based on a 7 day observation and is determined by the method of Miller and Tainter (Proc. Soc. Exp. Biol. Med. 57:261, 1944).

[3] = test system: methemoglobinemia; assay: Methemoglobinemia (cyanosis), rat; conditions: for Methemoglobinemia (Cyanosis): rat, @ 500 mg/kg p.o.
[4] = test system: acetic acid writhing; assay: Acetic Acid Writhing Test (AAWT), mouse; assay type: in vivo; conditions: po, read-out: AAWT ED50
Description: (§1) A. Acetic Acid Writhing Test (AAWT)
(§2) Using the procedure described by Koster et al. in Fed. Proc. 18, 412 (1959) and Vinegar et al. in Handbook of Experimental Pharmacology, 50-2, ch.

[5] = test system: hepatic glutathione; assay: Hepatic glutathione depletion in mouse; assay type: in vivo; conditions: for Hepatic Gluathione Depletion: @ 40% of LD50, i.p. in mouse, over a 5 hr period
[6] = test system: rat liver, rat kidney; assay: Histopathology, rat liver and kidney; conditions: for Histopathology, Rat Kidney / Histopathology, Rat Liver: @ 40% LD50, i.p.
[7] = test system: mouse liver, mouse kidney; assay: Histopathology, mouse liver and kidney
[8] = test system: methemoglobinemia; assay: Methemoglobinemia (cyanosis), dog; conditions: for Methemoglobinemia (Cyanosis): dog
[9] = test system: acetic acid writhing; assay: Acetic Acid Writhing Test (AAWT), rat; assay type: in vivo; conditions: po, read-out: AAWT ED50
Description: as §1, §2

[10] = test system: trypsin hyperalgesia, rat hindlimb; assay: Trypsin Hyperalgesic Assay (THA), rat hindlimb; assay type: in vivo; conditions: for ED50: po, read-out: THA ED50; for Duration of Analgesia, time in hours to reduce -1.5 × THA ED50 to 40% inhibition: rat
Description: B. Trypsin Hyperalgesic Assay (THA)

[11] = test system: carrageenin pleurisy in Adrex; assay: AI activity in Adrex, carrageenin pleurisy p.o.; assay type: in vivo, rat; conditions: CP p.o.; for AI Activity in Adrex, Vol.: exudate volume
Description: (§3) A. Carrageenin Pleurisy Assay (CPA)
(§4) Following the procedure described by Vinegar et al. in European J. Rheumatology and Inflammation, 1, 204, (1978) the acute anti-inflammatory activity of the compound of formula (I) was compared with that of known anti-inflammatory drugs. Two assays were performed: in the first, the average 3 hr exudate volume for each drug-treated group was determined and the % inhibition relative to solvent-fed control animals calculated, the ED50 being the dose required to reduce the 3 hr exudate volume by 50%; in the second, the number of mobilized neutrophils was quantified and the % inhibition relative to solvent-fed control animals calculated, the ED50 being the dose required to reduce the number of neutrophils mobilized at 3 hrs by 50%.

[12] = test system: yeast-induced hyperthermia; assay: Yeast-Induced Hyperthermia Assay; assay type: in vivo, rat; conditions: for ED50: po, rat
Description: The Yeast-Induced Hyperthermia Assay was used according to the procedure described by Khalili-Varasteh et al. in Arch. Int. Pharmacodyn.

[13] = test system: carrageenin pleurisy (3 hr exudate volume, mobilized neutrophils); assay: Carrageenin Pleurisy Assay (CPA); assay type: in vivo, rat; conditions: for ED50: Rattus norvegicus, Neutrophil, po; for CPA Local activity (inactive at stated dose): inactive at 1.0 mg/rat
Description: as §3, §4

[14] = Acute toxicity assay, mouse; conditions: in vivo
[15] = test system: opiate receptors; assay: Opiate receptor binding in vitro
[16] = test system: peroxidase; assay: Peroxidase inhibition; assay type: biochemical
[17] = test system: analgesic activity (naloxone); assay: Naloxone antagonism of analgesic activity; conditions: in vivo
[18] = test system: gastric damage; assay: Gastric damage in the rat; assay type: in vivo
[19] = test system: prostaglandin synthetase; assay: Prostaglandin synthetase inhibition; assay type: biochemical
[20] = test system: lipoxygenase; assay: Lipoxygenase inhibition; assay type: biochemical
[21] = test system: gastric damage; assay: Gastric damage (general statement); conditions: in vivo
[22] = test system: platelet aggregation; assay: Platelet aggregation inhibition
[23] = test system: rat liver, rat kidney; conditions: in vivo, ip
[24] = test system: mouse liver, mouse kidney; conditions: in vivo, ip
[25] = dose reducing 3 hr exudate volume by 50%, read-out: CPA ED50, Vol.

SMILES: CN1CC[C@]23c4c5ccc(O)c4O[C@H]2[C@@H](O)C=C[C@H]3[C@H]1C5 [Morphine]
- Activity in hot plate assay for strong analgesic activity [1]: active

SMILES: COc1ccc2c3c1O[C@H]1[C@@H](O)C=C[C@H]4[C@@H](C2)N(C)CC[C@@]341 [Codeine]
- Activity in hot plate assay for strong analgesic activity [1]: active

SMILES: CCOc1ccc(NC(C)=O)cc1 [Phenacetin, p-ethoxyacetanilide]
- LD50 at 168 h ([2]; ip, 7 day observation): 900 mg/kg
- LD50 at 168 h ([2]; po, 7 day observation): 2900 mg/kg
- Methemoglobinemia (Cyanosis) [3]: Yes
- ED50 ([4]; Mus musculus): 116 ± 14.5 mg/kg
- Hepatic Gluathione Depletion [5]: + (90% depletion over a 5 hr period)
- Histopathology, Rat Kidney [6]: -
- Histopathology, Rat Liver [6]: -
- Histopathology, Mouse Kidney ([7]; @ 40% LD50, i.p.): -
- Histopathology, Mouse Liver ([7]; @ 40% LD50, i.p.): -
- Methemoglobinemia (Cyanosis) ([8]; @ 100 mg/kg p.o.): Yes
- Methemoglobinaemia ([8]; relatively low dose levels): produces severe methemoglobinaemia at relatively low dose levels
- ED50 ([9]; Rattus norvegicus): 46 ± 10.1 mg/kg
- ED50 ([10]; Rattus norvegicus): 69 ± 11.6 mg/kg
- Duration of Analgesia, time in hours to reduce -1.5 × THA ED50 to 40% inhibition ([10]; p.o.): 5.7 h
- AI Activity in Adrex, Cells [11]: Inactive
- ED50 [12]: 55 ± 28.6 mg/kg
- Duration of AI Activity, time in hrs to reduce 2 × CP cell ED50 to 40% inhibition of Vol.: Cells [13]: 7.0 h
- ED50 ([13]; 3 h, read-out: CPA ED50, Cells): 110 ± 15.5 mg/kg
- ED50 ([13]; 3 h, read-out: CPA ED50, Vol.): 102 ± 14.6 mg/kg
- Duration of AI Activity, time in hrs to reduce 2 × CP cell ED50 to 40% inhibition of Vol.: Vol. [13]: 10.5 h
- CPA Local activity (inactive at stated dose) ([13]; local): Inactive
- LD50 at 168 h ([14]; ip): 620 mg/kg
- LD50 at 168 h ([14]; po): 2500 mg/kg

SMILES: CC(=O)Nc1ccc2c(c1)OCO2 [Compound of formula (I), N-(1,3-benzodioxol-5-yl)acetamide]
- LD50 at 168 h ([2]; ip, 7 day observation): 410 mg/kg
- LD50 at 168 h ([2]; po, 7 day observation): 1000 mg/kg
- Methemoglobinemia (Cyanosis) [3]: No
- Methemoglobinaemia ([3]; rats, high oral doses): not been shown
- Binding to opiate receptors in vitro [15]: does not bind to opiate receptors in vitro
- Peroxidase inhibition [16]: is not a prostaglandin synthetase, lipoxygenase or peroxidase inhibitor
- Inhibition of analgesic activity by naloxone [17]: not inhibited by naloxone
- Depletion of hepatic glutathione ([5]; mouse): not been shown
- Histopathology, Rat Kidney [6]: -
- Histopathology, Rat Liver [6]: -
- Histopathological evidence of hepatic or renal damage ([6]; rat): not been shown to produce histopathological evidence of hepatic or renal damage
- Histopathological evidence of hepatic or renal damage ([7]; mouse): not been shown to produce histopathological evidence of hepatic or renal damage
- Gastric damage in the rat ([18]; after 80 mg/kg): does not produce gastric damage
- Methemoglobinemia (Cyanosis) ([8]; @ 200 mg/kg p.o.): Slight
- Methemoglobinaemia ([8]; dogs, high dose levels): has produced methemoglobinaemia in dogs at high dose levels
- ED50 ([9]; rat, p.o.): 50 ± 0.6 mg/kg
- Activity in trypsin hyperalgesic assay, I.C.V. ([10]; injected intracerebroventricularly (I.C.V.)): inactive
- ED50 ([10]; rat hindlimb, p.o.): 20 ± 5.1 mg/kg
- Duration of Analgesia, time in hours to reduce -1.5 × THA ED50 to 40% inhibition ([10]; p.o.): 8.0 h
- Prostaglandin synthetase inhibition [19]: is not a prostaglandin synthetase, lipoxygenase or peroxidase inhibitor
- AI Activity in Adrex, Cells [11]: Active
- AI Activity in Adrex, Vol. [11]: Active
- ED50 [12]: 57 mg/kg
- Antipyretic activity in the rat ([12]; yeast-induced hyperthermia): comparable with aspirin and phenacetin
- Duration of AI Activity, time in hrs to reduce 2 × CP cell ED50 to 40% inhibition of Vol.: Cells [13]: 6 h
- ED50 [13, 25]: 34 ± 2.2 mg/kg
- ED50 ([13]; dose reducing neutrophils mobilized at 3 hrs by 50%, read-out: CPA ED50, Cells): 49 ± 6.8 mg/kg
- Duration of AI Activity, time in hrs to reduce 2 × CP cell ED50 to 40% inhibition of Vol.: Vol. [13]: 6 h
- Anti-inflammatory activity in the rat ([13]; carrageenin pleurisy assay): comparable with aspirin
- CPA Local activity (inactive at stated dose) ([13]; local): Inactive
- Lipoxygenase inhibition [20]: is not a prostaglandin synthetase, lipoxygenase or peroxidase inhibitor
- Gastric damage associated with aspirin-like drugs [21]: does not produce the gastric damage
- Platelet aggregation inhibition [22]: does not produce the gastric damage or platelet aggregation inhibition
- LD50 at 168 h ([14]; ip): 250 mg/kg
- LD50 at 168 h ([14]; po): 660 mg/kg
- Activity in hot plate assay for strong analgesic activity [1]: inactive

SMILES: CC(=O)Nc1ccc(O)cc1 [Acetaminophen]
- LD50 at 168 h ([2]; ip): 1640 mg/kg
- Methemoglobinemia (Cyanosis) [3]: No
- Histopathology, Rat Kidney [23]: +
- Histopathology, Rat Liver [23]: +
- Histopathology, Mouse Kidney [24]: +
- Histopathology, Mouse Liver [24]: +
- ED50 ([4]; mouse, p.o.): 301 ± 11.5 mg/kg
- Hepatic Gluathione Depletion [5]: + (90% depletion over a 5 hr period)
- Methemoglobinemia (Cyanosis) ([8]; @ 100 mg/kg p.o.): No
- ED50 ([10]; rat hindlimb, p.o.): 95 ± 17.2 mg/kg
- AI Activity in Adrex, Cells [11]: Weakly Active
- AI Activity in Adrex, Vol. [11]: Active
- ED50 [12]: 72 ± 8.6 mg/kg
- Duration of AI Activity, time in hrs to reduce 2 × CP cell ED50 to 40% inhibition of Vol.: Cells [13]: 3.8 h
- ED50 [13, 25]: 172 ± 22.4 mg/kg
- Duration of AI Activity, time in hrs to reduce 2 × CP cell ED50 to 40% inhibition of Vol.: Vol. [13]: 2.2 h
- CPA Local activity (inactive at stated dose) ([13]; local): Inactive
- LD50 at 168 h ([14]; ip): 880 mg/kg
- LD50 at 168 h ([14]; po): 1640 mg/kg

SMILES: CC(=O)Oc1ccccc1C(=O)O [Aspirin]
- LD50 at 168 h ([2]; ip, 7 day observation): 500 mg/kg
- ED50 ([4]; Mus musculus): 301 ± 21.1 mg/kg
- Gastric damage in the rat ([18]; single oral dose of 30 mg/kg): produces ulcers and haemorrhages
- ED50 ([9]; Rattus norvegicus): 21 ± 3.4 mg/kg
- Activity in trypsin hyperalgesic assay [10]: essentially inactive
- THA activity (inactive at stated dose) ([10]; rat hindlimb, p.o., inactive at 360 mg/kg): Inactive
- AI Activity in Adrex, Cells [11]: Inactive
- AI Activity in Adrex, Vol. [11]: Active
- ED50 [12]: 50 ± 8.1 mg/kg
- Duration of AI Activity, time in hrs to reduce 2 × CP cell ED50 to 40% inhibition of Vol.: Cells [13]: 3.0 h
- ED50 ([13]; 3 h, read-out: CPA ED50, Cells): 75 ± 7.5 mg/kg
- ED50 ([13]; 3 h, read-out: CPA ED50, Vol.): 28 ± 3.2 mg/kg
- Duration of AI Activity, time in hrs to reduce 2 × CP cell ED50 to 40% inhibition of Vol.: Vol. [13]: 35.0 h
- CPA ED50, Local ([13]; local): 0.04 mg/rat
- LD50 at 168 h ([14]; ip): 220 mg/kg
- LD50 at 168 h ([14]; po): 1100 mg/kg
